pIC50: −log10 of the molar value.
These molecules were tested against Glutamate receptor ionotropic, AMPA (Rattus norvegicus, UniProt P19490+P19491+P19492+P19493) (assay: Inhibition of Ca 2+ Influx in cultured rat cerebellar granule cells, mediated by ionotropic glutamate receptor AMPA).
Type: functional

| Structure (SMILES) | pIC50 |
| --- | --- |
| O=c1c2cc(F)ccc2nc(/C(O)=C/c2ccccc2F)n1-c1ccccc1Cl | < 4.52 |
| O=c1c2cc(F)ccc2nc(COc2ccccc2F)n1-c1ccccc1Cl | < 5.00 |
| CC(=O)N(Cc1nc2ccc(F)cc2c(=O)n1-c1ccccc1Cl)c1ccccc1F | < 5.52 |
| O=c1c2cc(F)ccc2nc(CNc2ccccc2F)n1-c1ccccc1Cl | 7.89 |
| N#Cc1ccccc1NCc1nc2ccc(F)cc2c(=O)n1-c1ccccc1Cl | 7.38 |
| Cc1cccc(NCc2nc3ccc(F)cc3c(=O)n2-c2ccccc2Cl)c1 | 6.67 |
| CN(Cc1nc2ccc(F)cc2c(=O)n1-c1ccccc1Cl)c1ccccc1F | 5.70 |
| O=c1c2cc(F)ccc2nc(CNCc2ccccc2F)n1-c1ccccc1Cl | < 6.52 |
| O=c1c2cc(F)ccc2nc(CC(O)c2ccccc2F)n1-c1ccccc1Cl (stereo in doubt; 3a) | 6.62 |
| O=c1c2cc(F)ccc2nc(CC(O)c2ccccc2F)n1-c1ccccc1Cl (stereo in doubt; 3b) | < 5.52 |

— ChEMBL document CHEMBL1134483, “Quinazolin-4-one alpha-amino-3-hydroxy-5-methyl-4-isoxazolepropionic acid (AMPA) receptor antagonists: structure-activity relationship of the C-2 side chain tether” (J Med Chem, 2001)
